The values that follow come from ChEMBL document CHEMBL1201862, “PubChem BioAssay data set” (2004).

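48-hour exposure; five concentrations; linearly interpolated endpoints. GI50 is the concentration that inhibits growth by half.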 Active and inactive are the calls of the source. Cut-off read from the data, not from the text of the source: active = GI50 up to about 1.1 µM and inactive = higher.

Among the test systems are BT-549; COLO 205; HOP-62; HT-29; IGROV-1; KM12; MCF7; MDA-MB-435; MOLT-4; NCI-H226; NCI/ADR-RES; OVCAR-4; SF-295; SK-MEL-5; SK-OV-3; SN12C; T47D; UACC-62; RPMI-8226.
What all share (assay): NCI anticancer screen, dose series, 48 h

Regarding `Nc1ccc2c(c1)S(=O)(=O)c1cc(O)ccc1O2`, the GI50 with BT-549 was 45.6 µM (inactive); in the assay with COLO 205, > 100 µM (inactive); in the assay with HOP-62 it was > 100 µM (inactive); in the assay with HT-29 it was > 100 µM (inactive); in the assay with IGROV-1 it was > 100 µM (inactive); in the assay on KM12, > 100 µM (inactive). For the same compound, the GI50 in the assay with MCF7, in the assay with MDA-MB-435, in the assay on MOLT-4, in the assay with NCI-H226, in the assay with NCI/ADR-RES and in the assay on OVCAR-4 was > 100 µM (inactive) each time. Also, the GI50 with SF-295, in the assay with SK-MEL-5, in the assay with SK-OV-3, in the assay on SN12C, in the assay on T47D and in the assay on UACC-62 was > 100 µM (inactive) each time.

Regarding `O=C(OCc1ccccc1CN1CCOCC1)c1ccc(Br)cc1`, the GI50 in the assay with BT-549 is 74.8 µM (inactive); in the assay with COLO 205, 74.6 µM (inactive); in the assay with HOP-62, 72.3 µM (inactive); in the assay on HT-29, 20.5 µM (inactive); in the assay with IGROV-1, 47.8 µM (inactive); with MCF7 it was 39.6 µM (inactive). Further, the GI50 is 31 µM (inactive) in the assay with MDA-MB-435; > 100 µM (inactive) in the assay on NCI-H226; 42 µM (inactive) with NCI/ADR-RES; 43.5 µM (inactive) in the assay on OVCAR-4; 22.1 µM (inactive) with RPMI-8226; 12.2 µM (inactive) in the assay on SK-MEL-5. Also, the GI50 in the assay on SK-OV-3 is > 100 µM (inactive); in the assay on SN12C it was 76 µM (inactive); in the assay on T47D, 43.5 µM (inactive); in the assay on UACC-62, 55 µM (inactive).

Regarding `CCOC(=O)c1ccc(C(=O)/C(C#N)=C2\CCCN2)[nH]1`, the GI50 was > 100 µM (inactive) in the assay with BT-549; > 100 µM (inactive) in the assay on COLO 205; > 100 µM (inactive) with HOP-62; 72.3 µM (inactive) with HT-29; > 100 µM (inactive) with IGROV-1; 55 µM (inactive) with KM12. Also, the GI50 in the assay with MCF7 was 98.4 µM (inactive); with MDA-MB-435, 28.8 µM (inactive); with MOLT-4, 48.2 µM (inactive); in the assay with NCI-H226, > 100 µM (inactive); with NCI/ADR-RES, 78.3 µM (inactive); in the assay with OVCAR-4, > 100 µM (inactive). Also, the GI50 in the assay on RPMI-8226 is > 100 µM (inactive); with SF-295, > 100 µM (inactive); with SK-MEL-5, 41.9 µM (inactive); in the assay with SK-OV-3, > 100 µM (inactive); in the assay with SN12C, > 100 µM (inactive); with T47D, > 100 µM (inactive). Further, the GI50 in the assay with UACC-62 was > 100 µM (inactive).

For `CC[C@H]1C=CCC[C@@]2(C[C@@H]3CC[C@@H]4[C@H](C(=O)OCCCCCCCCCCCCCCCC(=O)N(CCCNC(C)=O)C[C@H](CCNC(C)=O)OC(C)=O)[C@]5(CCC[C@@H](C)O5)NC(=[N+]34)N2)O1`, the GI50 in the assay on BT-549 was 0.453 µM (active); with COLO 205 it was 0.0395 µM (active); in the assay with HOP-62 it was 0.494 µM (active); with HT-29, 0.0344 µM (active); in the assay with IGROV-1, 0.0583 µM (active); in the assay on KM12 it was 0.0847 µM (active). The GI50 was 0.0861 µM (active) with MCF7; 0.0432 µM (active) in the assay with MDA-MB-435; 0.0328 µM (active) with MOLT-4; 0.229 µM (active) in the assay with NCI-H226; 2.74 µM (inactive) in the assay on NCI/ADR-RES; 0.183 µM (active) with OVCAR-4. Also, the GI50 was 0.0312 µM (active) in the assay with RPMI-8226; 0.391 µM (active) with SF-295; 0.124 µM (active) in the assay on SK-MEL-5; 1.43 µM (inactive) in the assay with SK-OV-3; 0.516 µM (active) in the assay with SN12C; 0.249 µM (active) in the assay with T47D. The GI50 in the assay on UACC-62 is 0.0752 µM (active).

Regarding `O=C(Cn1c(=O)oc2ccc(C(=O)c3cccc(Cl)c3)cc21)c1ccccc1`, the GI50 is 18.1 µM (inactive) in the assay with BT-549; 33.9 µM (inactive) in the assay on COLO 205; > 100 µM (inactive) in the assay with HOP-62; 29.9 µM (inactive) in the assay with HT-29; > 100 µM (inactive) with IGROV-1; 87.9 µM (inactive) in the assay on MCF7. The GI50 in the assay with MDA-MB-435 is > 100 µM (inactive); with MOLT-4 it was 49.4 µM (inactive); in the assay with NCI-H226, 40.9 µM (inactive); in the assay on NCI/ADR-RES, > 100 µM (inactive); in the assay on OVCAR-4, 12.8 µM (inactive); in the assay with RPMI-8226, > 100 µM (inactive). The GI50 with SF-295 was 44.6 µM (inactive); in the assay with SK-MEL-5 it was 23.1 µM (inactive); in the assay with SK-OV-3 it was 42.1 µM (inactive); in the assay on SN12C, > 100 µM (inactive); in the assay with T47D, 4.53 µM (inactive); in the assay on UACC-62 it was > 100 µM (inactive).

As for `C/C=C/CC(C(=O)OCC)(N(C)C(=O)OC(C)(C)C)S(=O)(=O)c1ccc(C)cc1` (stereo not given), the GI50 is > 100 µM (inactive) with BT-549; 68.1 µM (inactive) with COLO 205; > 100 µM (inactive) in the assay on HOP-62; 39.4 µM (inactive) with HT-29; 68.7 µM (inactive) in the assay on IGROV-1; 48.2 µM (inactive) in the assay on KM12. The GI50 is 53.7 µM (inactive) in the assay on MCF7; 25.7 µM (inactive) in the assay with MDA-MB-435; > 100 µM (inactive) in the assay with MOLT-4; > 100 µM (inactive) in the assay on NCI-H226; 69.2 µM (inactive) in the assay on NCI/ADR-RES; > 100 µM (inactive) with OVCAR-4. For the same compound, the GI50 was 52.8 µM (inactive) in the assay on RPMI-8226; 63.7 µM (inactive) in the assay with SF-295; 88.7 µM (inactive) with SK-MEL-5; > 100 µM (inactive) in the assay with SN12C; > 100 µM (inactive) in the assay with T47D; 61.9 µM (inactive) in the assay with UACC-62.

On to `O=C1c2c(ccc3c2CCCC3)CC12Cc1ccccc1C2`, for which the GI50 was 81.8 µM (inactive) in the assay with BT-549; 15.1 µM (inactive) with COLO 205; 16.8 µM (inactive) in the assay on HOP-62; 5.96 µM (inactive) with HT-29; 30.2 µM (inactive) with IGROV-1; 16.4 µM (inactive) with KM12. Besides, the GI50 was 17 µM (inactive) in the assay with MCF7; 9.38 µM (inactive) in the assay on MDA-MB-435; 4.03 µM (inactive) in the assay with MOLT-4; 9.53 µM (inactive) in the assay on NCI-H226; 15.8 µM (inactive) in the assay on NCI/ADR-RES; 40.8 µM (inactive) in the assay on OVCAR-4. Moreover, the GI50 was 4.35 µM (inactive) in the assay with RPMI-8226; 19 µM (inactive) in the assay with SF-295; 6.19 µM (inactive) in the assay with SK-MEL-5; 30.6 µM (inactive) in the assay on SK-OV-3; 21.8 µM (inactive) in the assay on SN12C; 17.9 µM (inactive) in the assay with T47D. In addition, in the assay on UACC-62, the GI50 was 13.5 µM (inactive).

Regarding `O=C1CSC2=NC3=C(COC/C3=C\c3ccc(F)cc3)C(c3ccc(F)cc3)N12` (stereo not given), the GI50 with BT-549 was > 100 µM (inactive); in the assay with COLO 205 it was 42.8 µM (inactive); in the assay on HOP-62, > 100 µM (inactive); with IGROV-1, 86.7 µM (inactive); in the assay with KM12 it was 75 µM (inactive); with MCF7, 42 µM (inactive). Further, the GI50 in the assay with MDA-MB-435 was 65.2 µM (inactive); with MOLT-4, 20.6 µM (inactive); with NCI-H226, > 100 µM (inactive); in the assay on NCI/ADR-RES, 58.9 µM (inactive); with OVCAR-4, 50.9 µM (inactive); in the assay with RPMI-8226, 14.9 µM (inactive). The GI50 with SF-295 was 52.5 µM (inactive); with SK-MEL-5, 71.4 µM (inactive); in the assay on SK-OV-3, > 100 µM (inactive); in the assay with SN12C, > 100 µM (inactive); in the assay with T47D, 58.5 µM (inactive); in the assay on UACC-62, > 100 µM (inactive).

For the compound `O=C(NI1OC(=O)c2ccccc21)c1ccc(Cl)cc1`, the GI50 in the assay on BT-549, in the assay on COLO 205, in the assay with HOP-62, in the assay with HT-29, in the assay on IGROV-1 and in the assay with KM12 was > 100 µM (inactive) each time. In addition, the GI50 is > 100 µM (inactive) in the assay on MCF7; > 100 µM (inactive) in the assay on MDA-MB-435; 60.4 µM (inactive) with NCI-H226; > 100 µM (inactive) in the assay with NCI/ADR-RES; > 100 µM (inactive) in the assay on OVCAR-4; > 100 µM (inactive) in the assay on RPMI-8226. Moreover, the GI50 was > 100 µM (inactive) in the assay on SF-295; > 100 µM (inactive) with SK-MEL-5; > 100 µM (inactive) in the assay with SK-OV-3; > 100 µM (inactive) in the assay with SN12C; > 100 µM (inactive) in the assay with T47D; 51.6 µM (inactive) with UACC-62.

With `COc1ccc(N2C(=O)/C(=C/c3ccc(N(CCC#N)CCC#N)cc3)N=C2c2ccccc2)c(OC)c1`, the GI50 with BT-549 was > 100 µM (inactive); in the assay with COLO 205 it was > 100 µM (inactive); in the assay with HT-29, > 100 µM (inactive); with IGROV-1 it was > 100 µM (inactive); in the assay on KM12 it was 35.5 µM (inactive); with MCF7, 61.7 µM (inactive). Further, the GI50 is > 100 µM (inactive) in the assay with MDA-MB-435; 28.2 µM (inactive) in the assay on MOLT-4; 27.4 µM (inactive) with NCI-H226; 52.8 µM (inactive) in the assay with NCI/ADR-RES; > 100 µM (inactive) in the assay on OVCAR-4; 29 µM (inactive) in the assay with RPMI-8226. For the same compound, the GI50 with SF-295 was > 100 µM (inactive); in the assay with SK-MEL-5 it was > 100 µM (inactive); with SK-OV-3, > 100 µM (inactive); with SN12C, > 100 µM (inactive); in the assay with T47D, 27.1 µM (inactive); with UACC-62, > 100 µM (inactive).

Regarding `CN(C)CCOc1ccc(I)cc1Cc1ccccc1`, the GI50 is 14 µM (inactive) in the assay on BT-549; 11.9 µM (inactive) in the assay with COLO 205; 13.9 µM (inactive) with HOP-62; 4.36 µM (inactive) in the assay on HT-29; 4.6 µM (inactive) in the assay on IGROV-1; 13.7 µM (inactive) with KM12. For the same compound, the GI50 in the assay on MCF7 was 13 µM (inactive); in the assay on MDA-MB-435, 4.27 µM (inactive); with MOLT-4, 5.21 µM (inactive); with NCI-H226 it was 15.9 µM (inactive); in the assay with NCI/ADR-RES, 13.8 µM (inactive); in the assay with OVCAR-4, 11.8 µM (inactive). Besides, the GI50 in the assay with RPMI-8226 was 6.34 µM (inactive); in the assay with SF-295 it was 15.4 µM (inactive); in the assay on SK-MEL-5 it was 3.61 µM (inactive); in the assay with SK-OV-3, 18.6 µM (inactive); in the assay on SN12C, 12.1 µM (inactive); with T47D, 3.81 µM (inactive). For the same compound, the GI50 with UACC-62 was 3.28 µM (inactive).
